Reference: PMC10058761, “Heart-Type Fatty Acid Binding Protein Binds Long-Chain Acylcarnitines and Protects against Lipotoxicity” (International Journal of Molecular Sciences, 2023)
Where “and” joins values, the source holds several entries; their conditions need not be identical. Identical values can stand only once.

Key:
human FABP3 [1] = target: T1, human FABP3 (Homo sapiens, UniProt P05413); assay: Ligand binding by NMR (2D 1H-15N HSQC chemical shift perturbations); details: KPi buffer pH 7.6
T1 construct: His-tag (N); TEV cleavage site (N); made in house; host or cells: E. coli BL21(DE3)
T1 sequence (P05413 whole entry): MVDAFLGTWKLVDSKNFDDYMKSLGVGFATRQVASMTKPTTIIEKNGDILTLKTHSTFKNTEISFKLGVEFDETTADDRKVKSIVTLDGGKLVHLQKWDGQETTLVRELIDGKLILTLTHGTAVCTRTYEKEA
Experimental: NMR spectra were acquired on the 600 MHz Bruker Avance Neo spectrometer (Bruker Biospin GmbH, Rheinstetten, Germany) equipped with a 5-mm quadruple-resonance CryoProbe (QCI) with z-gradients. […] All experiments were performed in KPi buffer without or with TX and with the addition of 7% (v/v) D2O, 0.03% (v/v) NaN3, and 0.01% (v/v) SigmaFAST EDTA-free protease inhibitor cocktail to prevent protein degradation. The amount of organic solvent (ethanol or DMSO-d6) was below 2% (v/v) in each experiment.
3D HNCA, 3D HNCO, 3D HN(CA)CO, and 3D CBCA(CO)NH spectra were acquired for the backbone assignment. 3D [^1H,^1H]-nuclear Overhauser spectroscopy (NOESY)-^15N-heteronuclear single-quantum correlation (HSQC) spectrum was acquired using a mixing time of 100 ms and also used in the backbone assignment. 2D ^1H-^15N HSQC spectra were acquired for evaluation of the CSPs caused by the lipid binding. Chemical shifts were referenced internally to the residual water signal at 4.70 ppm relative to the 4,4-dimethyl-4-silapentane-1-sulfonic acid (DSS). […] Other complexes were analyzed by analogy and with the help of 3D [^1H-^1H]-NOESY-^15N-HSQC. All spectra were processed in TopSpin v. 4.1.1. (Bruker, Billerica, MA, USA) and analyzed in CARA 1.9.1. software. Residue-specific protein backbone amide assignment was performed based on the published chemical shifts. CSPs, Δδ, were calculated using Equation (1) with the scaling factor, α, which was set to 0.1 [67, 68]. (1) Δδ=1/2[δH2+α·δN^2],

in vitro = details: human
Experimental: PANC-1 (ATCC® CRL-1469™) pancreatic epithelial carcinoma cells were obtained from ATCC® (Manassas, VA, USA). PANC-1 cells were chosen as they are suitable for transfection and are characterized by low endogenous expression levels of FABP3. The cells were grown in Dulbecco’s Modified Eagle’s Medium (DMEM) supplemented with 10% (v/v) fetal bovine serum (FBS) and 1% (v/v) penicillin/streptomycin (Pen/Strep) at 37 °C in a humidified incubator with 5% CO2. All reagents for cell maintenance were purchased from Thermo Fisher Scientific. For experiments, PANC-1 cells were seeded at density 1 × 10^5 cells∙mL^−1 (100 μL per well) in the 96-well plate. Cells were left to attach to the plate overnight. Briefly, before the experiment, PANC-1 cells in 96-well plates were washed with Hanks’ Balanced Salt Solution (HBSS) several times. For all cell experiments, serum-free DMEM media were used.
Briefly, the cell media were removed from the wells. A solution of MTT was added to each well at the concentration of 1 mg∙mL^−1. The plate was incubated for 2 h at 37 °C. Then the MTT solution was removed and 100 μL of isopropyl alcohol was added to each well to dissolve the formazan crystals produced by living cells. The plate was then measured by the Hidex plate reader (Hidex Oy, Turku, Finland).

[2] = LCAC cytotoxicity assay (MTT) in FABP3-overexpressing PANC-1 cells; format: cell-based; details: human, 40 μM C16:0-carnitine, cells transfected with the FABP3 plasmid, read-out: cell viability
Excerpt: Cells were left to attach to the plate overnight.
Briefly, the cell media were removed from the wells.
Next, we tested whether overexpression of FABP3 could result in protective effects regarding the cell viability of the PANC-1 cells. The commercially available FuGENE® HD transfection reagent (Promega Corporation, Madison, WI, USA) was mixed with the FABP3 (NM_010174) mouse tagged ORF clone plasmid (OriGene Technologies, Inc., Rockville, MD, USA) in a 4:1 ratio for transfection according to the manufacturer’s protocol. Transfection was performed for 24 h in 6-well plates. To ensure transfection efficiency, quantitative PCR (qPCR) and Western blot analysis were performed (see Figures S52 and S53). Transfected PANC-1 cells were transferred to 96-well plates and further examined for C16:0-carnitine toxicity at various concentrations as previously described. The obtained results were compared to the effects in native cells.

human FABP3 [3] = target: T1, human FABP3; assay: ITC determination of heat capacity change at 16, 25 and 37 °C; format: binding; details: KPi without TX; ΔH at 16, 25, 37 °C, linear regression
Excerpt: Heat capacity changes, ΔCp, are important indicators of the structural changes during ligand-to-protein binding in various environmental conditions and may reflect changes in the static and dynamic properties of the protein [33, 34]. Moreover, it may represent interactions with extra supplements, such as salts and detergents, and larger processes, such as changes in protein folding, solvent-accessible surface area (SASA), or protonation states within the active site. […] Thermodynamic parameters for the remaining LCFAs were determined in the KPi + TX buffer, while LCACs were tested in the KPi buffer without any additive. Figure 7 represents an example of the overlays of the ITC experiments for C18:1(n-9)c and the corresponding LCAC performed at the following temperatures: 16, 25, and 37 °C.
(§1) ITC experiments were carried out on the MicroCal™ iTC200 instrument (Malvern Instruments Ltd., Malvern, UK). Experiments were performed in KPi buffer without and with 0.1% (v/v) TX supplement. All titrations except for the determination of the heat capacity, ΔCp, were performed at 25 °C using 20–120 μM protein. Experiments for the determination of the ΔCp were performed at three different temperatures: 16, 25, and 37 °C. 280 μL of the protein solution in the sample cell were titrated with the ligand solution diluted to 200–1200 μM depending on the enzyme concentration (to achieve a 1:10 or 1:5 ratio). Every titration started with a small 0.3 μL injection introduced to compensate for the diffusion effects. One of the following injection profiles was chosen based on the activity of the ligand and binding heat released: 1.2 μL × 32 or 1.5 μL × 26—all with 120 s time spacing between every injection and 600 rpm. Each ligand was titrated at least two times. The reference baseline consisting of small peaks of identical size (titration of the corresponding ligand into the buffer) was subtracted from the data before fitting to correct for the heat of the ligand dilution. The first injection was excluded from each dataset. The final data were fitted to a theoretical titration curve (one set of sites fitting model) using MicroCal Origin 7 SR4 software (OriginLab, Northampton, MA, USA).

human FABP3 [4] = target: T1, human FABP3; assay: ITC assay of ligand binding to apo-FABP3; details: KPi pH 7.6, 25 °C, without TX; for N (stoichiometry): protein assumed 100% active and delipidated
Experimental: as §1, with “All titrations except for the determination of the heat capacity, ΔCp, were performed at 25 °C using 20–120 μM protein.” left out, “280 μL of the protein solution in the sample cell were titrated with the ligand solution diluted to 200–1200 μM depending on the enzyme concentration (to achieve a 1:10 or 1:5 ratio).” left out

human FABP3 [5] = target: T1, human FABP3; assay: ITC competitive binding experiments (FABP3 pre-saturated with a competing ligand); details: KPi, 25 °C
Experimental: as §1, with “The final data were fitted to a theoretical titration curve (one set of sites fitting model) using MicroCal Origin 7 SR4 software (OriginLab, Northampton, MA, USA).” left out

[6] = FABP3 saturated with C8:0, titrated with C18:1(n-9)t-carnitine, Competitive Binding model
[7] = FABP3 saturated with C8:0, titrated with C18:1(n-9)t-carnitine, One Set of Sites model

Structure (SMILES) | binding to FABP3 by NMR (CSPs in 2D 1H-15N HSQC) (human FABP3 [1]) | CC50 at 4 h (in vitro) [µM] | viability at 4 h, 40 μM (in vitro) [%] | viability at 4 h, 40 μM [2] [%] | ΔCp (human FABP3 [3]) [kcal∙mol^−1∙K^−1] | Kd (human FABP3 [4]) | ΔG (human FABP3 [4]) [kcal/mol] | ΔH (human FABP3 [4]) [kcal/mol] | −TΔS (human FABP3 [4]) [kcal/mol] | N (stoichiometry) (human FABP3 [4]) | -TΔS (human FABP3 [5]; [6]) [kcal/mol] | ΔG (human FABP3 [5]; [6]) [kcal/mol] | ΔH (human FABP3 [5]; [6]) [kcal/mol] | -TΔS (human FABP3 [5]; [7]) [kcal/mol] | Kd (human FABP3 [5]; [7]) [µM] | ΔG (human FABP3 [5]; [7]) [kcal/mol] | ΔH (human FABP3 [5]; [7]) [kcal/mol] | binding heat effects in competition titration (human FABP3 [5]; FABP3 saturated with C10:0, titrated with C18:1(n-9)t-carnitine)
CCCCCCCCCCCCCCCC(=O)O[C@H](CC(=O)[O-])C[N+](C)(C)C [C16:0-carnitine] | did not show any significant CSPs | ~25 | < 20 | ~70 | – | – | – | – | – | – | – | – | – | – | – | – | – | –
CCCCCCCC/C=C\CCCCCCCC(=O)O[C@H](CC(=O)O)C[N+](C)(C)C.[Cl-] [C18:1(n-9)c-carnitine, oleoylcarnitine] | strong CSPs indicative of binding | – | – | – | −0.09 ± 0.01 | 2.21 ± 0.07 µM | -7.72 ± 0.01 | -4.6 ± 0.2 | -3.1 ± 0.2 | 0.5 | – | – | – | – | – | – | – | –
CCCCCCCC/C=C/CCCCCCCC(=O)O[C@H](CC(=O)O)C[N+](C)(C)C [C18:1(n-9)t-carnitine, elaidoylcarnitine] | strong CSPs indicative of binding | – | – | – | −0.14 ± 0.01 | 2.2 µM and 2.19 µM | -7.72 ± 0.02 | – | – | 0.5 | 0.32 ± 0.09 | -11.7 ± 0.1 | -12.0 ± 0.3 | -5.8 ± 0.3 | 1.8 ± 0.2 | -7.85 ± 0.08 | -2.0 ± 0.2 | no binding heat effects were detected
CC/C=C\C/C=C\C/C=C\C/C=C\C/C=C\CCCC(=O)O[C@H](CC(=O)O)C[N+](C)(C)C [C20:5(n-3)c-carnitine, EPA-carnitine] | strong CSPs indicative of binding | – | – | – | −0.07 ± 0.01 | 14.83 ± 0.08 µM | -6.61 ± 0.03 | -2.43 ± 0.09 | -4.19 ± 0.06 | 1.0 | – | – | – | – | – | – | – | –
